Measurements reported in paper PMC10065799, “High-throughput profiling of sequence recognition by tyrosine kinases and SH2 domains using bacterial peptide display” (eLife, 2023).

Assays:
c-Src kinase domain [1] = target: T1, c-Src kinase domain (Homo sapiens, UniProt P12931); experiment: RP-HPLC assay to measure peptide phosphorylation kinetics; format: biochemical; conditions: purified peptide substrate
c-Src kinase domain [2] = target: T1, c-Src kinase domain; experiment: pTyr-Var library bacterial peptide display kinase screen (enrichment scores); format: biochemical; conditions: sheet "Src"; effect of the variant peptide relative to its reference peptide in the pTyr-Var library screen;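 also: log2 fold change in enrichment of variant over reference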
FGFR1 kinase domain = experiment: LC-MS assay of intact SHP2 protein phosphorylation; format: biochemical, human; conditions: SHP2 10 μM, kinase 1 μM, 1 hr, 37 °C, 2 to 3 measurements
Description: (§1) The same protocol used to express and purify SH2 domains, excluding co-expression of BirA and addition of biotin, was applied to the expression and purification of the SHP2 variants.
(§2) To pre-activate the kinases, 1 μM of each purified kinase domain was preincubated at 37 °C for 30 min in the same buffer conditions used in the kinase domain peptide display screen, with 1 mM ATP. The reaction of the kinase with SHP2 was initiated with the addition of 10 μM SHP2, and the mixture was incubated in 37 °C for 1 hr. To terminate the reaction, the mixture was quenched with 200 mM EDTA. The reaction mixture was diluted 3:2 in water and injected onto a BEH C8 column (Waters) on a UPLC-MS system (Xevo QToF, Waters). Reverse-phase liquid chromatography was carried out at 0.3 mL/min with solvents A (H2O, 0.1% (v/v) formic acid) and B (acetonitrile, 0.1% (v/v) formic acid). Proteins were eluted over a gradient of 5–95% B for 8.5 min. The protein peak on the chromatogram was deconvoluted using the MaxEnt1 algorithm from 32,000–65,000 Da with a resolution of 1 Da/channel over 30 iterations. Peaks were chosen according to the theoretical MW of the protein within a range of 5 Da, and integrated for the signal intensity.

Fyn kinase domain = experiment: LC-MS assay of intact SHP2 protein phosphorylation; format: biochemical, human; conditions: SHP2 10 μM, kinase 1 μM, 1 hr, 37 °C, 2 to 3 measurements
Description: as §1, §2

Row | Molecule | Phosphorylation Rate (c-Src kinase domain [1]) [s⁻¹] | Screen (c-Src kinase domain [2]) | phosphorylation of intact SHP2 by FGFR1 (FGFR1 kinase domain) | phosphorylation of intact SHP2 by Fyn (Fyn kinase domain)
1 | Ac-WDLPEYSFKDP-NH2 [ITGA3_Y237_S235P_YF, pTyr-Var library variant phosphosite peptide] | 0.153 | -1.08 |  | 
2 | SHP2 D61N: human full-length SHP2 (residues 1–526; C459E, D61N) (protein, UniProt Q06124 2-593, looked up, variant C459E D61N) Tyrosine-protein phosphatase …: TSRRWFHPNITGVEAENLLLTRGVDGSFLARPSKSNPGDFTLSVRRNGAVTHIKIQNTGNYYDLYGGEKFATLAELVQYYMEHHGQLKEKNGDVIELKYPLNCADPTSERWFHGHLSGKEAEKLLTEKGKHGSFLVRESQSHPGDFVLSVRTGDDKGESNDGKSKVTHVMIRCQELKYDVGGGERFDSLTDLVEHYKKNPMVETLGTVLQLKQPLNTTRINAAEIESRVRELSKLAETTDKVKQGFWEEFETLQQQECKLLYSRKEGQRQENKNKNRYKNILPFDHTRVVLHDGDPNEPVSDYINANIIMPEFETKCNNSKPKKSYIATQGCLQNTVNDFWRMVFQENSRVIVMTTKEVERGKSKCVKYWPDEYALKEYGVMRVRNVKESAAHDYTLRELKLSKVGQGNTERTVWQYHFRTWPDHGVPSDPGGVLDFLEEVHHKQESIMDAGPVVVHESAGIGRTGTFIVIDILIDIIREKGVDCDIDVPKTIQMVRSQRSGMVQTEAQYRFIYMAVQHYIETLQRRIEEEQKSKRKGHEYTNIKYSLADQTSGDQSPLPPCTPTPPCAEMREDSARVYENVGLMQQQKSFR |  |  | dramatically enhanced phosphorylation | dramatically enhanced phosphorylation
